In patent US9062289B2, “Differentiation of primate pluripotent stem cells to cardiomyocyte-lineage cells” (Asterias Biotherapeutics, Inc., priority 2005, dated 2015) one finds contractile activity and chronotropic effect data, which are given here for three compounds.

Structures are written as SMILES.

This experiment has as its system primate pluripotent stem cell-derived cardiomyocytes. Nature of the experiment: Contractile activity of primate pluripotent stem cell-derived cardiomyocytes. In kind it is cell-based. The conditions noted are these: spontaneous periodic contractions in culture. On the procedure: Under appropriate circumstances, primate pluripotent stem cell-derived cardiomyocytes often show spontaneous periodic contractile activity. This means that when they are cultured in a suitable tissue culture environment with an appropriate Ca^++ concentration and electrolyte balance, the cells can be observed to contract across one axis of the cell, and then release from contraction, without having to add any additional components to the culture medium. The contractions are periodic, which means that they repeat on a regular or irregular basis, at a frequency between ˜6 and 200 contractions per minute, and often between ˜20 and ˜90 contractions per minute in normal buffer (FIG. 2). Individual cells may show spontaneous periodic contractile activity on their own, or they may show spontaneous periodic contractile activity in concert with neighboring cells in a tissue, cell aggregate, or cultured cell mass.
The contractile activity of the cells can be characterized according to the influence of culture conditions on the nature and frequency of contractions. Compounds that reduce available Ca^++ concentration or otherwise interfere with transmembrane transport of Ca^++ often affect contractile activity. […] Further characterization of functional properties of the cell can involve characterizing channels for Na^+, K^+, and Ca^++. Electrophysiology can be studied by patch clamp analysis for cardiomyocyte like action potentials. See Igelmund et al., Pflugers Arch. 437:669, 1999; Wobus et al., Ann. N.Y. Acad. Sci. 27:752, 1995; and Doevendans et al., J. Mol. Cell Cardiol. 32:839, 2000.

`COc1ccc([C@@H]2Sc3ccccc3N(CCN(C)C)C(=O)[C@@H]2OC(C)=O)cc1` [diltiazem]: the contractile activity entry is “inhibits contractile activity in a dose-dependent manner”.
Regarding `CC(C)NCC(O)c1ccc(O)c(O)c1` (stereo not drawn) [isoprenaline], the chronotropic effect result is reported as “positive chronotropic effect”.
As for `CNC[C@H](O)c1cccc(O)c1` [phenylephrine], the chronotropic effect result was “positive chronotropic effect”.
